One data set concerns HSV-2 (herpes simplex 2). Nature of the data set: Antiviral drug screen of EGCG, HSV-2. The class given is cell-based.
Data set [1] has as its system multidrug-resistant strain (33591) of Staphylococcus aureus. Nature of the data set: Antibacterial assay, pre-incubation then colony-forming units counted. As to conditions: for Killing of bacteria (cfu): 0.08% EGCG. Type of data set: cell-based. As for the experimental part: Antibacterial activity: EGCG was tested as an antibacterial agent against a multidrug-resistant strain (33591) of Staphylococcus aureus. After pre-incubating the cells with various concentrations of EGCG at pH 6, 7.5, and 8.5, cells were plated and colony-forming units (cfu) were counted as a measure of efficacy (FIG. 12).

A further data set deals with HSV-2. Kind of data set: HSV-2 inactivation: virus mixed with compound, infectivity titrated on CV1 cells (reduction of virus titer). The class given is cell-based, herpes simplex virus 2. As to conditions: varying pH. As to the method: (§1) Experimental—HSV-1 and 2: Herpes simplex viruses were titrated by inoculation of 10-fold dilutions (HSV-1 was inoculated into Vero cell cultures, and HSV-2 was inoculated into CV1 cultures) in 96-well microtiter tissue culture plates. A virus dilution (0.1 ml) in RPMI 1640 with 1% fetal bovine serum (MM) was inoculated into each well with three wells per dilution. The plates were kept for 2 to 5 days, depending on the virus, and examined daily for cytopathic effect. Virus titers were calculated by the method of Reed and Muench (1938).
(§2) About 10^5 50% tissue culture infective doses (TCID50s) of virus were mixed with varying concentrations (12.5, 25, 50, 75 and 100 μM) of reduced and oxidized EGCG in MM and incubated at 37° C. for 30 min. The following samples were tested: The reduced form of EGCG (#1); the partially oxidized form of EGCG (#2); the quinone or fully oxidized form of EGCG with the addition of a copper catalyst (#3); and quinone or fully oxidized form of EGCG with the addition of a zinc catalyst (#4). In Samples #3 and #4, the addition of the copper and zinc catalysts, respectively, raised the pH to 9.0-9.5. These compounds were totally oxidized, thereby taking a quinone form. […]
(§3) Virus mixed with MM alone was used as a control. […] The 10^−1 to 10^−5 dilutions were inoculated into monolayers of Vero or CV1 cells, and the virus titers were determined as described above. […]

For data set [2], the system named is HCMV (human cytomegalovirus). Nature of the data set: Antiviral drug screen of EGCG, HCMV. The class given is cell-based.
In data set [3] the test system is VZV (varicella zoster virus). Kind of data set: Antiviral drug screen of EGCG, VZV. Type of data set: cell-based.
Another data set has as its target Bcl-xL (Homo sapiens, UniProt Q07817). The settings on record: Kitada et al., 2003; cited from earlier work.
The conditions of data set [4]: pH 7.4; cited from earlier work.
The subject of the next data set is HSV-1. Kind of data set: HSV-1 inactivation: virus mixed with compound, infectivity titrated on Vero cells (reduction of virus titer). The settings on record: varying pH. Type of data set: cell-based, herpes simplex virus 1. As to the method:
as §1, §2, §3

Bcl-xL, sequence (Q07817 whole entry): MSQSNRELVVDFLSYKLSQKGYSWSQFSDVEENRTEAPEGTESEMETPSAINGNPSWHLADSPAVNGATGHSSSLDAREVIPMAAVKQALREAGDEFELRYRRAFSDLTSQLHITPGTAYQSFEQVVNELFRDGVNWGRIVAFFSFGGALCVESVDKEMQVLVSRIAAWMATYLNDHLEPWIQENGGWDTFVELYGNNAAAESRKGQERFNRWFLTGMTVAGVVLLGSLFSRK

For the molecule `O=C(O[C@@H]1Cc2c(O)cc(O)cc2O[C@@H]1c1cc(O)c(O)c(O)c1)c1cc(O)c(O)c(O)c1` [EGCG, (−)-Epigallocatechingallate], the EC-50 in the data set with HSV-2 (herpes simplex 2) (HSV-2) worked out at 7.6 µg/mL; in data set [2] (HCMV), 6.9 µg/mL; in data set [3] (VZV) it was 4.1 µg/mL. Besides, the results for the EC-90 (in the data set with HSV-2 (herpes simplex 2) (HSV-2); in data set [2] (HCMV); in data set [3] (VZV)) were 98.6 µg/mL, 40 µg/mL and more than 40 µg/mL, respectively. Further, the CC-50 in the data set on HSV-2 (herpes simplex 2) (cytotoxicity in HSV-2 screen) was 857 µg/mL; in data set [2] (cytotoxicity in HCMV screen) it was more than 40 µg/mL; in data set [3] (cytotoxicity in VZV screen), more than 40 µg/mL. The “Killing of bacteria (cfu)” value in data set [1] (pH 7.5) and in data set [1] (pH 8.5) was “effective at killing nearly all the bacteria” each time. In addition, the “Bactericidal effect (cfu)” value in data set [1] (0.4-0.8% EGCG, pH 6, 7.5 and 8.5) is on record as “strongly bactericidal”. In data set [1] (concentrations higher than 0.4-0.8% EGCG), the “Effectiveness (cfu)” value is on record as “less effective”. The “Effect of pH on activity against HSV-2 (FIG. 9)” value with HSV-2 is “greater antiviral activity at the more alkaline pH's”. Moreover, the Ki result on Bcl-xL is “nanomolar range”. The “Time to complete degradation” value in data set [4] is on record as 6 h. In the data set with HSV-1, the “Effect of pH on activity against HSV-1 (FIG. 9)” value is “greater antiviral activity at the more alkaline pH's”.

These data come from patent US20100021989A1, “COMPOSITIONS AND METHODS OF CONTROLLING AND ADMINISTERING REDOX SPECIFIC FORMS OF DRUGS, FOODS AND DIETARY SUPPLEMENTS” (priority 2008, published 2010).
